Laboratory results: patent US20110281852A1 (priority 2010, published 2011)

Assays:
GATA-2 [1] = assay: Immunoblot, GATA-2 protein in 3T3-L1 cells; type: cell-based, mouse; conditions: DM + 1, 2, 4, 8 μM, 8 days, p<0.05
Description: (§1) Immunoblot Analysis: GATA-2 and GATA-3 protein expression were assessed by Western blot. […] The cells were washed twice with PBS, lysed in a lysis buffer (HEPES-Tx-PI buffer: 10 mM HEPES, 5 mM EDTA, 350 mM Sucrose, 1 ug/ml leupeptin, 1 ug/ml pepstatin, 1% Triton-X, 1 mM PMSF, diluted in water), processed with a 25G needle and centrifuged at 10,000 rpm for 5 min. Protein concentration was determined using the […] according to the Pierce Protein Assay Protocol. Total protein (50 μg) was used for GATA-2 and GATA-3 analysis and was separated by electrophoresis using BioRad Electrophoretic System (60 V for 1 hour followed by 90 V for 5 hours). The protein was then transferred to nitrocellulose membranes at 35 V overnight. The membrane was blocked for 1 hour at room temperature in 5% nonfat milk in Tris-buffered saline (TBS), then washed with Tween-20-TBS (TTBS, 0.1% Tween-20) three times (15 min, 5 min, 5 min), followed by incubation with primary antibodies of GATA-2 (dilution 1:500), GATA-3 (dilution 1:500), β-Actin (dilution 1:1000) at room temperature for 2 hours. The membrane was rinsed three times (15 min, 5 min, 5 min), then incubated at room temperature for 1 hour with Horseradish peroxidase-conjugated second antibody (1:10,000). The membrane was then incubated in ECL reagent for 1 minute. Protein was visualized using UVP image analysis system.

[2] = From the text: Mouse experiments: All experiments were approved by Institutional Animal Care and Use Committee of South Dakota State University. Nine-week-old C57BL/6J male mice were purchased from The Jackson Laboratory. Group 1 mice were fed with normal diet (ND, D12450Bi, Research Diets Inc. New Brunswick, N.J., USA) for 9 weeks, group 2 mice were fed with ND for 6 weeks and then high-fat diet (FD, D12451i, Research Diets Inc. New Brunswick, N.J., USA) for 3 weeks. The mice were maintained according to The Jackson Laboratory guidelines for animal care and housed at 22±2° C. temperature, 55±5% relative humidity, with a light/dark cycle of 12 hours. Food (group 1 with normal fat diet and group 2 with high-fat diet until sacrifice) and water were provided ad libitum. […] Six mice per subgroup were obtained finally. […] Blood samples were collected from the hearts of anesthetized mice after feeding and treatment for 36 days following fast for 16 hours. When sacrificed, mouse liver, kidney, spleen and epididymal fat tissues were dissected and weighed. Epididymal fat tissues were immediately frozen in liquid nitrogen and stored at −80° C.
GATA-2 [3] = assay: Immunoblot, GATA-2 protein in epididymal fat of FD mice; type: in vivo, mouse; conditions: berberine treatment
Description: RNA and protein purification and quantification from epididymal fat tissues: RNA and protein was isolated from 60 mg of epididymal fat tissues with Trizol (Invitrogen, Carlsbad, Calif., USA) following the protocol recommended by the manufacturers. RNA was dissolved in pure water and quantified at 260/280 nm, and sample integrity was checked by 1.5% agarose gel electrophoresis. Protein concentration was determined using the Micro BCA Protein Assay Kit (Fisher Scientific, Pittsburgh, Pa., USA) according to the manufacturer's instructions.
Immunoblot Analysis: Protein expression of GATA-2, GATA-3, PPARγ and C/EBPα in the control of β-actin was assessed by Western Blot. Protein samples from the same group were homogenized as previously reported (Hu and Davies, Phytomedicine (2009) 16:864-873). Protein (25 μg) was separated by polyacrylamide gel electrophoresis using the BioRad Electrophoretic System (60 V for 1 h followed by 90 V for 5 h). The proteins were then transferred to nitrocellulose membranes at 35 V overnight. […]

GATA-3 = assay: Immunoblot, GATA-3 protein in 3T3-L1 cells; type: cell-based, mouse; conditions: DM + 1, 2, 4, 8 μM, 8 days, p<0.05
Description: as §1

C/EBPα = assay: Real-time RT-PCR, C/EBPα mRNA in 3T3-L1; type: cell-based, mouse; conditions: 8 days
From the text: Realtime RT-PCR: Real-time reverse transcriptase polymerase chain reaction (RT-PCR) analysis was used to measure mRNA expression of genes SREBP-1, PPARγ, C/EBPα, low density lipoprotein receptor (LDLR), Adiponectin, and fatty acid synthase (FAS) under the control of β-actin. Briefly, total RNA was isolated from 3T3-L1 cells following treatment for 8 days with Trizol reagent (Invitrogen, Carlsbad, Calif., USA) according to the manufacturer's instruction. RNA was quantified using absorption of light at 260 nm, and sample purity was checked by OD 260 nm/280 nm. 0.8 μg of total RNA from each sample was used for reverse transcription reaction using the TaqMan Reverse Transcription Reagents (Applied Biosystems, Foster City, Calif., USA) according to the manufacturers' instructions. PCR was done using the SYBR green Master Mix (Applied Biosystems, Foster City, Calif., USA) according to the manufacturers' instructions. The temperature cycling conditions of amplification were as follows: an initial step of denaturation at 95° C. for 10 min, 40 cycles of denaturation at 95° C. for 30 s, annealing at 55° C. for 30 s, and elongation at 72° C. for 30 s. Realtime RT-PCR was performed using Mx3000P Realtime Thermocyclers (Statagene, La Jolla, Calif., USA). The relative mRNA levels of these genes were calculated by 2-delta delta CT method and normalized with control groups.

For `COc1ccc2cc3[n+](cc2c1OC)CCc1cc2c(cc1-3)OCO2.[Cl-]` [berberine, Berberine (Chloride Form)], the GATA-2 protein expression (GATA-2 [1]) was “increase”, the “liver weight, berberine vs control treated subgroup” value ([2]; ND mice) was “no significant difference” and the “toxicity to FD mice organs or to ND mice” value ([2]; up to 3 mg/kg/day i.p., 36 days) was “did not appear to exhibit any obvious toxicity”. For the same compound, the “quantitative protein expression of GATA-2” value (GATA-2 [3]) was “did not appear to be significantly changed”, the GATA-3 protein expression (GATA-3) was “increase” and the “decrease of C/EBPα mRNA expression vs clozapine treated group” value (C/EBPα; 8 μM berberine + 15 μM clozapine) was 94.7%. For the same compound, the “decrease of C/EBPα mRNA expression vs risperidone treated group” value (C/EBPα; 8 μM berberine + 50 μM risperidone) was 96.4%.
